The experiment deals with type I collagen deposition in primary lung fibroblasts. Nature of the experiment: Highthroughput type I collagen deposition (scar-in-a-jar) high content screening assay. As to conditions: Homo sapiens, Primary lung fibroblast, 72 h, human pulmonary fibroblasts, TGF-β 1 ng/ml, Ficoll crowding, mean of multiple experiments, read-out: mean pIC50, inhibition of type I collagen deposition (converted). The class given is cell-based. The protocol: Example 53 Highthroughput Type I Collagen Deposition (Scar-in-a-Jar) High Content Screening Assay
Highthroughput, cellular type I collagen deposition was measured by adapting a published method; scar-in-a-jar (Chen et al., 2009) to primary lung fibroblasts derived from human tissue and combining with high content analysis to permit fluorescent quantification of collagen deposited in the extracellular matrix (ECM). The human biological samples were sourced ethically and their research use was in accord with the terms of the informed consents
Test compounds were dissolved in 100% DMSO to give 10 mM (stocks) and further diluted to give half log dilutions to generate an 11 point concentration response curve. 1 ul was transferred to 384-well plates (Greiner Group, Kremsmunster, Austria, Catalogue No Greine 781280r).
Human pulmonary fibroblasts were maintained in DMEM media (Gibco, Catalogue No 21969) supplemented with 4 mM L-glutamine (Gibco Catalogue No 25030-024) and 10% heat inactivated FBS (Gibco, Catalogue No 10099-141) at 37° C. in 10% CO2. Cells were harvested and resuspended at 4×10^6 cells/ml in a T175 cell culture flask (BD Falcom, Catalogue No: 353112) containing 50 mL of culture media. After 4 days 37° C. in 10% CO2, cells were harvested and seeded at 4000 cells per well (50 μL/well) into 384-well plates (BD Falcon, Catalogue No 353962Greiner) in assay media (0.4% heat inactivated FBS, 4 mM L-glutamine). Plates were sealed with breathable seals (Sigma, Catalogue No. BEM-1). Assay plates were incubated for 72 h at 37° C. in 10% CO2.
Assay media was supplemented with 112.5 mg/ml Ficoll 70 (Sigma, Catalogue No F2878), 75 mg/ml Ficoll 400 (Sigma, Catalogue No F4375) and 50 μg/ml ascorbic acid (Sigma, Catalogue No A8960). 30 μL assay media were added to 1 μl compound (37 μM compound concentration in 1% DMSO). Diluted compounds (10 μL) were transferred to plates containing cells and incubated for 3 h at 37° C. in 10% CO2. Transforming growth factor (TGF)-β (R&D systems, Catalogue No 100-B/CF) was reconstituted to give 10 μg/mL (stock) and further diluted in assay media containing Ficoll and ascorbic acid (1 in 3333). TGF-β was added to cell plates (1 ng/ml final) and cells incubated for 72 h at 37° C. in 10% CO2.
Media was aspirated from cells and 30 μL/well 100% ice-cold methanol added and incubated at RT for 5 min to fix cells. Methanol was aspirated and cells washed with PBS (3×). To block and permeabilise, cells were incubated with PBS containing 1% BSA and 0.1% Triton X 100 for 20 min, followed by PBS wash (3×). Cells were incubated with mouse anti human type I collagen monoclonal antibody (Sigma, Catalogue No C2456) diluted 1:1000 in PBS for 24 h at 4° C. Cells were washed with PBS containing 0.1% Tween-20 (3×) and incubated with secondary alexa fluor 488 goat-anti-mouse antibody (Invitrogen, Catalogue No A11001, 1 in 500 in PBS) and Hoechst 33342 (Sigma, Catalogue No H21492), 1 in 1000 in PBS) for 1 h at RT, prior to washing with PBS containing 0.1% Tween (×4).
Type I collagen immunoreactivity was detected using the INCell 2000 Analyzer (GE Healthcare, INcell 2000) set to excitation and emission wavelengths for DAPI and FITC with laser focus and exposure adjusted to appropriate levels. Images were imported and analysed using Columbus software (Perkin Elmer) and computational algorithms to quantify “total collagen area” and “cell count”.
Data analysis was performed by determining % inhibition values for test compounds relative to the minimum (media only) and maximum responses (TGF-βstimulation) with non-linear regression analysis to determine IC50 values for test compounds.
As for `CC[C@H]1COCCN1c1cc(C2(S(=O)(=O)N(C)C)CCOCC2)cc(-c2ccc3[nH]c(CNC)cc3n2)n1` [Example 31, 4-{2-[(3S)-3-ethylmorpholin-4-yl]-6-{2-[(methylamino)methyl]-1H-pyrrolo[3,2-b]pyridin-5-yl}pyridin-4-yl}-N,N-dimethyloxane-4-sulfonamide], the IC50 was 39.8 to 100 nM.
To `CNCc1cc2nc(-c3cc(C(C)(C)S(C)(=O)=O)cc(N4C5CCCC4COC5)n3)ccc2[nH]1` [Example 5, 1-(5-(6-(3-oxa-9-azabicyclo[3.3.1]nonan-9-yl)-4-(2-(methylsulfonyl)propan-2-yl)pyridin-2-yl)-1H-pyrrolo[3,2-b]pyridin-2-yl)-N-methylmethanamine] belongs 39.8 to 1000 nM.
Turning to `CNCc1cc2nc(-c3cc(C4(S(C)(=O)=O)CC4)cc(N4CCOC[C@@H]4C)n3)ccc2[nH]1` [Example 20, ({5-[4-(1-methanesulfonylcyclopropyl)-6-[(3S)-3-methylmorpholin-4-yl]pyridin-2-yl]-1H-pyrrolo[3,2-b]pyridin-2-yl}methyl)(methyl)amine], the IC50 is 39.8 to 1000 nM.
